Test results published in patent US12509431B2, “1,4-dihydroquinazolinone compounds and uses thereof” (Edgewise Therapeutics, Inc., priority 2022, dated 2025).

What was measured:
Type in all cases: biochemical
Settings in all cases: Table 8
[1] = system: Rabbit Skeletal myofibrils (rabbit psoas muscle); experiment: Myofibril ATPase assay (PK/LDH NADH-coupled), skeletal myofibrils
Outline: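 ATPase rate taken as linear-regression slope of A340 (NADH depletion through PK/LDH coupling) over a 75 min kinetic read, with psoas-derived rabbit skeletal myofibrils at pH 7.0. Four-parameter fits of vehicle-normalized activity give EC25 and, where reached, EC50.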

[2] = biological target: T1, Porcine Ventricle myofibrils (left ventricle of Yucatan minipigs) (Sus scrofa, UniProt P79293); experiment: Myofibril ATPase assay (PK/LDH NADH-coupled), ventricle myofibrils
T1 construct: Myofibrils from porcine cardiac muscle was isolated from the left ventricle of Yucatan minipigs; tissue Exemplar Genetics; host or cells: left ventricle of Yucatan minipigs
Outline: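 NADH depletion (A340) coupled through pyruvate kinase/lactate dehydrogenase reports ATPase rate of porcine left-ventricle myofibrils over 75 min kinetic reads. Regression slopes, vehicle-normalized, fitted by 4-parameter logistic give EC25 and, where available, EC50.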

Porcine Atria myofibrils = experiment: Myofibril ATPase assay (PK/LDH NADH-coupled), atria myofibrils
Outline: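 Values are EC25% (and, for inhibitors, EC50%) from 4-parameter logistic fits of activity normalized to vehicle wells. Rates came from linear regression of 340 nm kinetic reads (every 1.5-2 min, 75 min) of NADH-coupled ATP turnover by porcine atria myofibrils.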

T1 sequence (P79293 whole entry): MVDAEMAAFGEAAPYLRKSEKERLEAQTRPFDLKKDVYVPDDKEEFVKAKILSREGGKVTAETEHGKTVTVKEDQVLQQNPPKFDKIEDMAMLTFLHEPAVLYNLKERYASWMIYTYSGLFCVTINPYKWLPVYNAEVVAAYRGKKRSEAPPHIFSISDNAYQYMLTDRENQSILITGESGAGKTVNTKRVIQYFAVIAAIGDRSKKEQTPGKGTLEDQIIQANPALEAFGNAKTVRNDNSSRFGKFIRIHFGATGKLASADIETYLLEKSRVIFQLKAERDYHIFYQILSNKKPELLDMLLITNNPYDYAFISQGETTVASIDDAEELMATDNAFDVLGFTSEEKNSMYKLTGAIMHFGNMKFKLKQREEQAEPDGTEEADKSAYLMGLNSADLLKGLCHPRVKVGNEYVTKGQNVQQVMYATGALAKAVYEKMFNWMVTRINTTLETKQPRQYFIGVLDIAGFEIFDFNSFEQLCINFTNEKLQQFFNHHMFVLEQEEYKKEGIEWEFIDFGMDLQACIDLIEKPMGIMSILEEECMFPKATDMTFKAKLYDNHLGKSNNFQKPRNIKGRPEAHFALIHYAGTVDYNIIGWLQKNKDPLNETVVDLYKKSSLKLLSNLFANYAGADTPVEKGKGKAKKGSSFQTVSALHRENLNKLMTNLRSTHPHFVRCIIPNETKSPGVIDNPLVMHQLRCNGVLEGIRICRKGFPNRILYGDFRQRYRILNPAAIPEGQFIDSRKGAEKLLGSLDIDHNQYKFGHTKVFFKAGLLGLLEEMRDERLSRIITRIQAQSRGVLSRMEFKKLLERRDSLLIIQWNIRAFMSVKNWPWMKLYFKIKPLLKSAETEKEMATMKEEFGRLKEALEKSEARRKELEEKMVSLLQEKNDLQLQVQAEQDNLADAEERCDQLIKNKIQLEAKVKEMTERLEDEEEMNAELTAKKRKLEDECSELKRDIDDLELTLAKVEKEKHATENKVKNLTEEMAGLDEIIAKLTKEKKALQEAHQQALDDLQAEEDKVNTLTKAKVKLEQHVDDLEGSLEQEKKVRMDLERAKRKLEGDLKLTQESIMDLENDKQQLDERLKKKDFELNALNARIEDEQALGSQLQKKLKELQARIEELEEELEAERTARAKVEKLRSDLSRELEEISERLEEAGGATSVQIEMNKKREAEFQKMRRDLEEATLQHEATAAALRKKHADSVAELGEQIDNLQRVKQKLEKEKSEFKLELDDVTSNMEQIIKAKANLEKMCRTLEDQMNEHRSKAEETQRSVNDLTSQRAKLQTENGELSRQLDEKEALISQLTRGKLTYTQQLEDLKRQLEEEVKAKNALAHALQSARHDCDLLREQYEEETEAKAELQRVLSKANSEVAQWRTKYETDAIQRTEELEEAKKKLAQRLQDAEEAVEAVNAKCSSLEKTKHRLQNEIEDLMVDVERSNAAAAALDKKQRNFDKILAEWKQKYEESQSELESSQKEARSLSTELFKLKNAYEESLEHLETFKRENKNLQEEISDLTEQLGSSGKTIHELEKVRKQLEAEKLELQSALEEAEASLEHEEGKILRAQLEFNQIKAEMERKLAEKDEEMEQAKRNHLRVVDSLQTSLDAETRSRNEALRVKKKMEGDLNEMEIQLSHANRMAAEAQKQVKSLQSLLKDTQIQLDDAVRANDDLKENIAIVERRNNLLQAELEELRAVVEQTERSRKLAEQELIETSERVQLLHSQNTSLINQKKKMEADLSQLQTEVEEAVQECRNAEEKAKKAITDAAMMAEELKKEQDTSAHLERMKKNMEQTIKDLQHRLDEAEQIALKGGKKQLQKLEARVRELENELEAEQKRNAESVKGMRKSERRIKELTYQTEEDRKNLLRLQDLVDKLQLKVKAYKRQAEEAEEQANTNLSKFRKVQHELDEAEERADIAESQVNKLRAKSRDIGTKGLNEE

| Structure (SMILES) | Rabbit Psoas IC25 [1] [nM] | Porcine Ventricle IC25 [2] [nM] | Porcine Atria IC25 (Porcine Atria myofibrils) [nM] |
| --- | --- | --- | --- |
| Cc1cccc2c1C1(CC1)N(CC(=O)N[C@H]1COc3cc(C#N)cc(F)c31)C(=O)N2 [Compound B313] | 9120 | 3910 | 2290 |
| C[C@@H](NC(=O)CN1C(=O)Nc2ccc(F)c(F)c2C12CC2)c1cnc(C#N)cn1 [Compound B314] | 120 | 500 | 40 |
| C[C@H](NC(=O)CN1C(=O)Nc2ccc(F)c(F)c2C12CC2)c1cnc(C#N)cn1 [Compound B315] | 20 | 90 | 50 |
| N#Cc1cc(F)c2c(c1)OC[C@H]2NC(=O)CN1C(=O)Nc2ccc(F)c(F)c2C12CC2 [Compound B319] | 5960 | 100 | 70 |
| N#Cc1cc(F)c2c(c1)OC[C@@H]2NC(=O)CN1C(=O)Nc2ccc(F)c(F)c2C12CC2 [Compound B320] | 330 | 240 | 230 |
| N#Cc1cnc2c(c1)OC[C@H]2NC(=O)CN1C(=O)Nc2ccc(F)c(F)c2C12CC2 [Compound B321] | 230 | 970 | 170 |
| N#Cc1cnc2c(c1)OC[C@@H]2NC(=O)CN1C(=O)Nc2ccc(F)c(F)c2C12CC2 [Compound B322] | 30 | 60 | 70 |
| C[C@@H](NC(=O)CN1C(=O)Nc2ccc(F)c(F)c2C12CC2)c1ncc(C#N)cc1F [Compound B323] | 630 | 320 | 100 |
| C[C@H](NC(=O)CN1C(=O)Nc2ccc(F)c(F)c2C12CC2)c1ncc(C#N)cc1F [Compound B324] | 30 | 50 | 40 |
| Cc1nc(C#N)cnc1[C@@H](C)NC(=O)CN1C(=O)Nc2ccc(F)c(F)c2C12CC2 [Compound B325] | 2340 | 3210 | 1040 |
| Cc1nc(C#N)cnc1[C@H](C)NC(=O)CN1C(=O)Nc2ccc(F)c(F)c2C12CC2 [Compound B326] | 20 | 60 | 160 |
| Cc1cc(C#N)nnc1[C@@H](C)NC(=O)CN1C(=O)Nc2ccc(F)cc2C12CC2 [Compound B328] | 100000 | 100000 | 1530 |
| Cc1cc(C#N)nnc1[C@H](C)NC(=O)CN1C(=O)Nc2ccc(F)cc2C12CC2 [Compound B329] | 130 | 420 | 200 |
| Cc1nc(C#N)cnc1[C@@H](C)NC(=O)CN1C(=O)Nc2ccc(F)cc2C12CC2 [Compound B330] | 50 | 190 | 80 |
| Cc1nc(C#N)cnc1[C@H](C)NC(=O)CN1C(=O)Nc2ccc(F)cc2C12CC2 [Compound B331] | 100000 | 66750 | 370 |
| Cc1nc(C#N)ncc1[C@@H](C)NC(=O)CN1C(=O)Nc2ccc(F)cc2C12CC2 [Compound B332] | 60 | 100 | 60 |
| Cc1nc(C#N)ncc1[C@H](C)NC(=O)CN1C(=O)Nc2ccc(F)cc2C12CC2 [Compound B333] | 100000 | 100000 | 100000 |
| C[C@@H](NC(=O)CN1C(=O)Nc2ccc(F)cc2C12CC2)c1ccc(C#N)nn1 [Compound B334] | 1020 | 1560 | 580 |
| C[C@H](NC(=O)CN1C(=O)Nc2ccc(F)cc2C12CC2)c1ccc(C#N)nn1 [Compound B335] | 100000 | 100000 | 9420 |

| Structure (SMILES) | Rabbit Psoas IC25 [1] [nM] | Porcine Ventricle IC25 [2] [nM] | Porcine Atria IC25 (Porcine Atria myofibrils) [nM] |
| --- | --- | --- | --- |
| C[C@@H](NC(=O)CN1C(=O)Nc2ccc(F)cc2C12CC2)c1cnc(C#N)cn1 [Compound B336] | 170 | 270 | 100 |
| C[C@H](NC(=O)CN1C(=O)Nc2ccc(F)cc2C12CC2)c1cnc(C#N)cn1 [Compound B337] | 100000 | 7010 | 1010 |
| Cc1nc([C@@H](C)NC(=O)CN2Cc3c(ccc(F)c3F)NC2=O)cnc1C#N [Compound B338] | 17150 | 1670 | 80 |
| Cc1nc(C(C)NC(=O)CN2Cc3c(ccc(F)c3F)NC2=O)no1 (stereo not drawn) [Compound B340] | 100000 | 100000 | 3800 |
| C[C@@H](NC(=O)CN1Cc2c(ccc(F)c2F)NC1=O)c1ncnc(C#N)c1F [Compound B341] | 1680 | 350 | 730 |
| C[C@H](NC(=O)CN1Cc2c(ccc(F)c2F)NC1=O)c1ncnc(C#N)c1F [Compound B342] | 2450 | 4850 | 930 |
| Cc1ncnc([C@@H](C)NC(=O)CN2Cc3c(ccc(F)c3F)NC2=O)c1F [Compound B343] | 100000 | 100000 | 4120 |
| Cc1ncnc([C@H](C)NC(=O)CN2Cc3c(ccc(F)c3F)NC2=O)c1F [Compound B344] | 2780 | 8840 | 1290 |
| Cc1nnc(C(C)NC(=O)CN2Cc3c(ccc(F)c3F)NC2=O)o1 (stereo not drawn) [Compound B345] | 100000 | 100000 | 57060 |
| Cc1ncc(F)c([C@@H](C)NC(=O)CN2Cc3c(ccc(F)c3F)NC2=O)n1 [Compound B346] | 59270 | 1630 | 220 |
| Cc1ncc(F)c([C@H](C)NC(=O)CN2Cc3c(ccc(F)c3F)NC2=O)n1 [Compound B347] | 100000 | 100000 | 100000 |
| Cc1ncc(C#N)nc1[C@@H](C)NC(=O)CN1Cc2c(ccc(F)c2F)NC1=O [Compound B348] | 9360 | 6790 | 10170 |
| Cc1ncc(C#N)nc1[C@H](C)NC(=O)CN1Cc2c(ccc(F)c2F)NC1=O [Compound B349] | 5320 | 830 | 220 |
| O=C(CN1Cc2c(ccc(F)c2F)NC1=O)N[C@@H]1CCc2cc(F)cnc21 [Compound B350] | 620 | 500 | 300 |
| Cc1nc([C@H](C)NC(=O)CN2Cc3c(ccc(F)c3F)NC2=O)ncc1C#N [Compound B353] | 2490 | 2240 | 1990 |
| Cc1nc(C#N)cnc1[C@@H](CO)NC(=O)CN1Cc2c(ccc(F)c2F)NC1=O [Compound B354] | 68360 | 3830 | 210 |
| Cc1nc(C#N)cnc1[C@H](CO)NC(=O)CN1Cc2c(ccc(F)c2F)NC1=O [Compound B355] | 70 | 140 | 50 |
| C[C@H](NC(=O)CN1Cc2cc(F)c(F)cc2NC1=O)c1ncc(C#N)cc1F [Compound B358] | 130 | 330 | 100 |
